From PubChem BioAssay (NCI)
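Growth conditions: 96-well plates. Treatment: test compound, 48 hours, 5 concentrations. Analysis: linear interpolation between bracketing concentrations; unreached endpoints set to highest concentration. At the GI50, growth is halved. TGI denotes the concentration required for complete inhibition of growth.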 Where a SMILES comes first, the peptide text is derived from it. [ ]: non-standard residue; d: D form. ξ: configuration not given here. Pentanoyl(2-O,4-OH,5-Cl) = O=C(O)C(O)CC(O)CCl; Ile(3ξ) = CCC(C)[C@H](N)C(=O)O; NMeV = CN[C@H](C(=O)O)C(C)C; NMeA = CN[C@@H](C)C(=O)O; βAla = NCCC(=O)O

Tests used:
Assay in all cases: DTP human tumour cell line panel, 48 h
[1] = tested on: COLO 205 colon
[2] = tested on: EKVX NSCLC
[3] = tested on: HL-60(TB) leukemia
[4] = tested on: HOP-92 NSCLC
[5] = tested on: KM12 colon
[6] = tested on: MDA-MB-231 breast
[7] = tested on: MOLT-4 leukemia
[8] = tested on: OVCAR-4 ovarian
[9] = tested on: SF-268 CNS
[10] = tested on: SK-OV-3 ovarian

Row | SMILES | GI50 [1] [µM] | TGI [1] [µM] | GI50 [2] [µM] | TGI [2] [µM] | GI50 [3] [µM] | TGI [3] [µM] | GI50 [4] [µM] | TGI [4] [µM] | GI50 [5] [µM] | TGI [5] [µM] | GI50 [6] [µM] | TGI [6] [µM] | GI50 [7] [µM] | TGI [7] [µM] | GI50 [8] [µM] | TGI [8] [µM] | GI50 [9] [µM] | TGI [9] [µM] | GI50 [10] [µM] | TGI [10] [µM]
1 | CN1CCN(CCCOC(=O)c2c3c(n4ccccc24)C(=O)c2ncccc2C3=O)CC1 | < 0.0332 | 1.17 | 0.0456 | 12.6 | 0.0684 | 14.6 | 0.254 | 16.8 | 0.0669 | 13.8 | 2.53 | 37.2 | 0.0604 | 23.4 | 0.537 | 3.78 | < 0.01 | 10.3 | < 0.01 | 0.0278
2 | CCN(CC)CCN1C(=O)C2C3C(C)=CC(OC(C)=O)(CC3C)C2C1=O (stereo not given) | > 100 | > 100 | > 100 | > 100 | > 100 | > 100 | > 100 | > 100 | > 100 | > 100 | > 100 | > 100 | > 100 | > 100 | > 100 | > 100 | > 100 | > 100 | > 100 | > 100
3 | CCC(C)[C@@H]1NC(=O)[C@@H]2CCCN2C(=O)C(CC(O)CCl)OC(=O)CCNC(=O)[C@H](C)N(C)C(=O)[C@H](C(C)C)N(C)C1=O (stereo not given in full) (cyclo([Ile(3ξ)][NMeV][NMeA][βAla][Pentanoyl(2-O,4-OH,5-Cl)]P)) | – | > 31.6 | – | > 100 | – | > 100 | – | 8.13 | – | > 100 | – | > 100 | – | > 100 | – | > 100 | – | > 100 | – | > 100
4 | O=C(O)CN(CCN(CC(=O)O)CC(=O)O)CCN(CC(=O)O)CC(=O)O | 4.55 | 16.5 | 3.26 | 9.91 | 2.12 | 5.01 | 11.5 | 79 | 4.94 | 37.6 | 10.5 | 87.6 | 2.57 | 8.26 | 2.51 | 7.51 | 3.04 | 10.8 | 3.19 | 8.62
5 | COc1ccc(-c2nn3ncccc3c2-c2ccnc(Nc3ccc(F)c(F)c3)n2)cc1 | 15.5 | > 25 | 5.06 | > 22.7 | 13.2 | > 25 | 3.99 | > 25 | 9.45 | > 25 | 9.1 | > 25 | 8.45 | > 25 | 12.4 | > 25 | 14.2 | > 25 | 10.5 | > 25
6 | Clc1cccc(-c2cc(-c3ccc4c(c3)OCCO4)[nH]n2)c1 | 1.42 | 30.1 | 11.5 | 45.6 | 4.65 | 53.6 | 7.74 | 42.8 | 1.01 | 38.5 | 7.75 | 47.6 | 3.15 | 74.6 | 13.8 | 49.5 | 12.4 | 57.1 | 5.42 | 46.7
7 | CC(C)OC(=O)Nc1c([N+](=O)[O-])cc(C(F)(F)F)cc1[N+](=O)[O-] | – | > 100 | – | > 100 | – | > 100 | – | > 91.8 | – | > 100 | – | > 100 | – | > 46.4 | – | > 100 | – | > 100 | – | > 100
8 | COc1ccc2c(c1[N+](=O)[O-])CC[C@@H]1[C@@H]2CC[C@]2(C)C(=O)CC[C@@H]12 | > 1000 | – | > 580 | > 1000 | > 1000 | – | 289 | – | > 1000 | > 1000 | 400 | > 905 | > 1000 | > 1000 | 228 | – | 342 | > 1000 | 413 | –
9 | Clc1ccc2c(NCCCCNc3nc(N4CCOCC4)nc4ccccc34)ccnc2c1 | 1.87 | 4.49 | 3.7 | 15.3 | 2.27 | 4.3 | 1.88 | 4.29 | 3.52 | 12.4 | 2.1 | 4.5 | 3.59 | 14 | 2.2 | 5.52 | 3.29 | 13.7 | 3.03 | 9.97
